# Measurements published in US20250051319A1 (AUGUSTINE THERAPEUTICS, priority 2021, published 2025).
# Key:
# [1] = target: catalytic domain 2 (CD2) of HDAC6 (Homo sapiens (Human), UniProt Q9UBN7); test: Cellular target engagement assay - NanoBRET; type: cell-based; settings: NanoLuc-HDAC6(CD2) in HEK293T cells, 2 hours, read-out: IC50 (HDAC6(CD2) interaction)
# [2] = target: human full-length recombinant HDAC1 (Homo sapiens (Human), UniProt Q13547); test: HDAC1 enzymatic activity assay (alternative protocol, Ac-Gly-Ala-Lys(Ac)-AMC); type: biochemical; settings: 4 nM enzyme, read-out: HDAC1 biochem
# Method: (§1) Inhibition of HDAC enzymes was performed in 384-well plate format using human full-length recombinant HDAC1 and HDAC6, isolated from a baculovirus expression system in Sf9 cells (BPS Bioscience). Reaction buffer for HDAC1 contained 50 mM Tris HCl pH 8.0, 137 mM NaCl, 2.7 mM KCl, 1 mM MgCl2, 0.1 mg/mL BSA, and reaction buffer for HDAC6 contained 50 mM Tris/HCl, pH 8.0, 137 mM NaCl, 2.7 mM KCl, 250 μM EDTA, 1 mM DTT, 0.1 mg/mL BSA. Compounds (dissolved in 100% DMSO) or DMSO (vehicle) were diluted in assay buffer at 3× final assay concentration and then added to assay plates. SAHA ([…]) was used as a positive control. 3× final assay concentration of recombinant enzymes (final assay concentration is 4 nM and 5 nM for HDAC1 and HDAC6, respectively) were preincubated for 10 minutes with test compounds at room temperature. Afterwards, 3× final assay concentration of an acetylated fluorogenic peptide (Ac-Gly-Ala-Lys(Ac))-AMC, Bachem; final assay concentration is 12 µM and 40 µM for HDAC1 and HDAC6, respectively) was added to assay plate, allowing deacetylase reactions to incubate for 60 minutes at room temperature. The developer reagent containing 5 μM SAHA and 50 μM trypsin was added to stop the deacetylase reaction and generate AMNC-fluorescence. 15 minutes after addition of developer reagent, endpoint measurements were taken using CLARIOstar (BMG Labtech) plate reader (excitation/emission: 360/450). Fluorescence signals were normalized for each plate using GraphPad Prism software: reaction HDAC-substrate in presence of DMSO was set to 100% while reaction HDAC-substrate in presence of 10 μM SAHA was set to 0%.
# [3] = target: human full-length recombinant HDAC6 (Homo sapiens (Human), UniProt Q9UBN7); test: HDAC6 enzymatic activity assay (alternative protocol, Ac-Gly-Ala-Lys(Ac)-AMC); type: biochemical; settings: 5 nM enzyme, read-out: HDAC6 biochem
# Method: as §1
# Chain of human full-length recombinant HDAC6 (Q9UBN7 whole entry): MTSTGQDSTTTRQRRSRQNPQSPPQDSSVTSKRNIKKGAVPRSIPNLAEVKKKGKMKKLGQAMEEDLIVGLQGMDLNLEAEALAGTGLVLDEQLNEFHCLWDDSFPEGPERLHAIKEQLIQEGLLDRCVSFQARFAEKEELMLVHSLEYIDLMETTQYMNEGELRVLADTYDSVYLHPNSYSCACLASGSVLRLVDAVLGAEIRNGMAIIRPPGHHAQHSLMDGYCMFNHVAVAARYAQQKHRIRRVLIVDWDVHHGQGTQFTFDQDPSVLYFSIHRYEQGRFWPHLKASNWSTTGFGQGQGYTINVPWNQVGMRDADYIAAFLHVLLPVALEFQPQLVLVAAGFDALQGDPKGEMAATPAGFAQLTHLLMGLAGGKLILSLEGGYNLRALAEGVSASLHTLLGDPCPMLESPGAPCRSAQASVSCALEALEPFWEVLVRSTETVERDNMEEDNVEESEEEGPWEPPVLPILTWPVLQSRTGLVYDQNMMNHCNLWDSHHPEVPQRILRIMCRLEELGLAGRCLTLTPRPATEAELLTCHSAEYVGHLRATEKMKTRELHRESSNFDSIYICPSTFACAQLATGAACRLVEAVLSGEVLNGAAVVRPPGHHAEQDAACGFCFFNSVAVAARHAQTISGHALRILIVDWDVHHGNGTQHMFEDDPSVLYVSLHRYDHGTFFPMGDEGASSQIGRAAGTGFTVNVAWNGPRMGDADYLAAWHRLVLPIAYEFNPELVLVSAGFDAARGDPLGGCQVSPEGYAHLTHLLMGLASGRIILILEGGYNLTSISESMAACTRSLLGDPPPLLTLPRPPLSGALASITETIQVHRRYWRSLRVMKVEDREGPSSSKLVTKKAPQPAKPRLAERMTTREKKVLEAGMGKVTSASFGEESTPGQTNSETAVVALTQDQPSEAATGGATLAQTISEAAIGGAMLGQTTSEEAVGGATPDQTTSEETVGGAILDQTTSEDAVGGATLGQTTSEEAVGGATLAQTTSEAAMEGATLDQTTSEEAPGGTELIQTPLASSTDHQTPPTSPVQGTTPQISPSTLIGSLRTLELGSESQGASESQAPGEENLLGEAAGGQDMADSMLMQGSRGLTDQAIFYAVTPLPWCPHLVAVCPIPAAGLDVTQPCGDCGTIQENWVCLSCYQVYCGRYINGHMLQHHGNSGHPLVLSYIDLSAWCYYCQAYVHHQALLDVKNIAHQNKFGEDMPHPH
# Chain of catalytic domain 2 (CD2) of HDAC6 (Q9UBN7 482-800): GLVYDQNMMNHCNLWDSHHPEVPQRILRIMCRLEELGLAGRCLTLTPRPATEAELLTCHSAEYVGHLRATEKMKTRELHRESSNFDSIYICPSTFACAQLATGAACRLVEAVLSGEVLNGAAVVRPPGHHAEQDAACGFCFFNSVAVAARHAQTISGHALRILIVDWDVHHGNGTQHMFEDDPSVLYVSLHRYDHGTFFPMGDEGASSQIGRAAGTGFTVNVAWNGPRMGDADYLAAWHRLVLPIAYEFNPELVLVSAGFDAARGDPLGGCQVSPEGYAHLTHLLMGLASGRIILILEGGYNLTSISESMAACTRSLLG
# Chain of human full-length recombinant HDAC1 (Q13547 whole entry): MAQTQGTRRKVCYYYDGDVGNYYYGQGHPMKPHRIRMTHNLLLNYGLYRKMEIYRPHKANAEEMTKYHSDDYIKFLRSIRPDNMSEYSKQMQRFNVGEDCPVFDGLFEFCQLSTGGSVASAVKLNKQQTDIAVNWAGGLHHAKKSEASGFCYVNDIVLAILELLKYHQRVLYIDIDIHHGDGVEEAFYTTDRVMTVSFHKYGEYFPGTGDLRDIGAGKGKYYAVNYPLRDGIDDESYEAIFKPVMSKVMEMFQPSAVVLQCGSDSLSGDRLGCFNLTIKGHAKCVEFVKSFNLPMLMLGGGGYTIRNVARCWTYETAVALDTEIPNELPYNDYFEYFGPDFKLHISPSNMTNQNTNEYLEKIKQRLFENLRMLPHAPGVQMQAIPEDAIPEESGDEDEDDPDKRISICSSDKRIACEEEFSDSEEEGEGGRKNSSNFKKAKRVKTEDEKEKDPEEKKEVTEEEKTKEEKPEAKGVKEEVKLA
SMILES,IC50 [1],IC50 [2],IC50 [3]
"Cc1nc(SCC(=O)c2ccc(CNC(=O)C(C)(C)C)s2)c2ccccc2n1 [Example 3, N-((5-(2-((2-methylquinazolin-4-yl)thio)acetyl)thiophen-2-yl)methyl)pivalamide]",≤ 100 nM,1000 to 10000 nM,≤ 100 nM
"CN(Cc1ccc(C(=O)CSc2ncnc3c2cnn3C)s1)C(=O)C1CC1 [Example 34, N-methyl-N-((5-(2-((1-methyl-1H-pyrazolo[3,4-d]pyrimidin-4-yl)thio)acetyl)thiophen-2-yl)methyl)cyclopropanecarboxamide]",100 to 500 nM,> 10000 nM,≤ 100 nM
"Cc1nc(SCC(=O)c2ccc(CNC(=O)C(C)(C)C)s2)c2cc(F)ccc2n1 [Example 9, N-((5-(2-((6-fluoro-2-methylquinazolin-4-yl)thio)acetyl)thiophen-2-yl)methyl)pivalamide]",100 to 500 nM,> 10000 nM,≤ 100 nM
"CC(C)c1nc(SCC(=O)c2ccc(CNC(=O)C(C)(C)C)s2)c2ccccc2n1 [Example 1, N-((5-(2-((2-isopropylquinazolin-4-yl)thio)acetyl)thiophen-2-yl)methyl)pivalamide]",100 to 500 nM,> 10000 nM,≤ 100 nM
"Cn1ncc2c(SCC(=O)c3ccc(CNC(=O)C(C)(C)C)s3)nc(C(F)F)nc21 [Example 21, N-((5-(2-((6-(difluoromethyl)-1-methyl-1H-pyrazolo[3,4-d]pyrimidin-4-yl)thio)acetyl)thiophen-2-yl)methyl)pivalamide]",500 to 1000 nM,> 10000 nM,≤ 100 nM
"CS(=O)(=O)N1CCC(c2ccc(C(=O)CSc3nc(C(F)(F)F)nc4ccccc34)s2)C1 (centres unmarked) [Compound 95, 1-(5-(1-(methylsulfonyl)163yrrolidine-3-yl)thiophen-2-yl)-2-((2-(trifluoromethyl)quinazolin-4-yl)thio)ethanone]",100 to 500 nM,> 10000 nM,≤ 100 nM
"CC(C)(C)C(=O)NCc1ccc(C(=O)CSc2nc(C3CC3)nc3ccccc23)s1 [Example 2, N-((5-(2-((2-cyclopropylquinazolin-4-yl)thio)acetyl)thiophen-2-yl)methyl)pivalamide]",100 to 500 nM,> 10000 nM,≤ 100 nM
"CC(C)(C)C(=O)NCc1ccc(C(=O)CSc2nncc3ccccc23)s1 [Example 193, N-((5-(2-(phthalazin-1-ylthio)acetyl)thiophen-2-yl)methyl)pivalamide]",100 to 500 nM,> 10000 nM,≤ 100 nM
"Cn1ncc2c(SCC(=O)c3ccc(CNC(=O)Cc4ccncc4)s3)ncnc21 [Compound 57, N-((5-(2-((1-methyl-1H-pyrazolo[3,4-d]pyrimidin-4-yl)thio)acetyl)thiophen-2-yl)methyl)-2-(160yrrolid-4-yl)acetamide]",100 to 500 nM,> 10000 nM,≤ 100 nM
"CS(=O)(=O)NCCc1ccc(C(=O)CSc2nc(C(F)(F)F)nc3ccccc23)s1 [Compound 98, N-(2-(5-(2-((2-(trifluoromethyl)quinazolin-4-yl)thio)acetyl)thiophen-2-yl)ethyl)methanesulfonamide]",≤ 100 nM,> 10000 nM,≤ 100 nM
"Cc1nc(SCC(=O)c2ccc(CCNS(C)(=O)=O)s2)c2ccccc2n1 [Compound 94, N-(2-(5-(2-((2-methylquinazolin-4-yl)thio)acetyl)thiophen-2-yl)ethyl)methanesulfonamide]",100 to 500 nM,> 10000 nM,≤ 100 nM
CC(C)(C)C(=O)NCc1ccc(C(=O)CSc2nnc(C(F)(F)F)c3ccccc23)s1 [Example 195],–,> 10000 nM,≤ 100 nM
"Cn1ncc2c(SCC(=O)c3nnc(CNC(=O)C(C)(C)C)s3)ncnc21 [Example 192, N-((5-(2-(1-methyl-1H-pyrazolo[3,4-d]pyrimidin-4-ylthio)acetyl)-1,3,4-thiadiazol-2-yl)methyl)pivalamide]",–,500 to 1000 nM,100 to 500 nM
"Cn1ncc2c(SCC(=O)c3ccc(C4CCN(C(=O)CO)C4)s3)ncnc21 (centres unmarked) [Compound 86, 2-hydroxy-1-(3-(5-(2-((1-methyl-1H-pyrazolo[3,4-d]pyrimidin-4-yl)thio)acetyl)thiophen-2-yl)157yrrolidine-1-yl)ethan-1-one]",1000 to 10000 nM,–,–
"COc1cnc2nc(C)nc(SCC(=O)c3ccc(CN4CCOCC4=O)s3)c2c1 [Example 161, 4-((5-(2-((6-methoxy-2-methylpyrido[2,3-d]pyrimidin-4-yl)thio)acetyl)thiophen-2-yl)methyl)morpholin-3-one]",100 to 500 nM,–,–
"Cn1c(SCC(=O)c2ccc(CNC(=O)CO)s2)nc2ccccc21 [Example 169, 2-hydroxy-N-((5-(2-((1-methyl-1H-benzo[d]imidazol-2-yl)thio)acetyl)thiophen-2-yl)methyl)acetamide]",1000 to 10000 nM,–,–
"O=C(CSc1nc(C(F)(F)F)nc2ncccc12)c1ccc(CN2CCCC2=O)s1 [Example 157, 1-((5-(2-((2-(trifluoromethyl)pyrido[2,3-d]pyrimidin-4-yl)thio)acetyl)thiophen-2-yl)methyl)pyrrolidin-2-one]",≤ 100 nM,–,–

# Further lines, results first:
IC50 [1],IC50 [2],IC50 [3],SMILES
100 to 500 nM,> 10000 nM,≤ 100 nM,"Cn1ncc2c(SCC(=O)c3ccc(CN4CCCC4=O)s3)ncnc21 [Example 25, 1-((5-(2-((1-methyl-1H-pyrazolo[3,4-d]pyrimidin-4-yl)thio)acetyl)thiophen-2-yl)methyl)pyrrolidin-2-one]"
100 to 500 nM,> 10000 nM,≤ 100 nM,"Cc1nc(SCC(=O)c2ccc(CNS(=O)(=O)CC3CC3)s2)c2ccccc2n1 [Compound 93, 1-cyclopropyl-N-((5-(2-((2-methylquinazolin-4-yl)thio)acetyl)thiophen-2-yl)methyl)methanesulfonamide]"
–,> 10000 nM,≤ 100 nM,"Cn1ncc2c(SCC(=O)c3ccc(CNC(=O)Cc4ccccc4)s3)ncnc21 [Example 32, N-((5-(2-((1-methyl-1H-pyrazolo[3,4-d]pyrimidin-4-yl)thio)acetyl)thiophen-2-yl)methyl)-2-phenylacetamide]"
500 to 1000 nM,> 10000 nM,≤ 100 nM,"Cc1nc(SCC(=O)c2ccc(CNC(=O)C(C)(C)C)s2)c2cnn(C)c2n1 [Example 5, N-((5-(2-((1,6-dimethyl-1H-pyrazolo[3,4-d]pyrimidin-4-yl)thio)acetyl)thiophen-2-yl)methyl)pivalamide]"
100 to 500 nM,> 10000 nM,≤ 100 nM,"CC(C)(C)C(=O)NCCc1ccc(C(=O)CSc2nc(C(F)(F)F)nc3ccccc23)s1 [Example 29, N-(2-(5-(2-((2-(trifluoromethyl)quinazolin-4-yl)thio)acetyl)thiophen-2-yl)ethyl)pivalamide]"
500 to 1000 nM,> 10000 nM,≤ 100 nM,"Cn1ncc2c(SCC(=O)c3cc(F)c(CNC(=O)C(C)(C)C)s3)ncnc21 [Example 28, N-((3-fluoro-5-(2-((1-methyl-1H-pyrazolo[3,4-d]pyrimidin-4-yl)thio)acetyl)thiophen-2-yl)methyl)pivalamide]"
–,> 10000 nM,1000 to 10000 nM,"CC(C)(C)C(=O)NCc1ccc(C(=O)CSc2nc(C(F)(F)F)cc3ccccc23)s1 [Example 191, N-((5-(2-((3-(trifluoromethyl)isoquinolin-1-yl)thio)acetyl)thiophen-2-yl)methyl)pivalamide]"
500 to 1000 nM,–,–,"COc1ccc2nc(C)nc(SCC(=O)c3ccc(CCN4CCC(O)C4=O)s3)c2c1 (centres unmarked) [Example 115, 3-hydroxy-1-(2-(5-(2-((6-methoxy-2-methylquinazolin-4-yl)thio)acetyl)thiophen-2-yl)ethyl)pyrrolidin-2-one]"
100 to 500 nM,–,–,"O=C(CSc1nc(C(F)(F)F)nc2ccc(N3CCOCC3)cc12)c1ccc(CNC(=O)C2(O)CC2)s1 [Compound 47, 1-hydroxy-N-((5-(2-((6-morpholino-2-(trifluoromethyl)quinazolin-4-yl)thio)acetyl)thiophen-2-yl)methyl)cyclopropane-1-carboxamide]"
100 to 500 nM,–,–,"COc1ccc2nc(C)nc(SCC(=O)c3ccc(CNC(=O)C4CC4)s3)c2c1 [Example 51, N-((5-(2-((6-methoxy-2-methylquinazolin-4-yl)thio)acetyl)thiophen-2-yl)methyl)cyclopropanecarboxamide]"
100 to 500 nM,–,–,"COc1ccc2nc(C)nc(SCC(=O)c3ccc(CNC(=O)CN)s3)c2c1 [Compound 177, 2-amino-N-((5-(2-((6-methoxy-2-methylquinazolin-4-yl)thio)acetyl)thiophen-2-yl)methyl)acetamide]"
1000 to 10000 nM,–,–,"O=C(CO)NCc1ccc(C(=O)CSc2nc3cc(Cl)ccc3o2)s1 [Example 174, N-((5-(2-((5-chlorobenzo[d]oxazol-2-yl)thio)acetyl)thiophen-2-yl)methyl)-2-hydroxyacetamide]"
